Reference: patent publication US7872006B2, “Pyrazole compounds having cannabinoid receptor (CB1) antagonizing activity” (Mitsubishi Tanabe Pharma Corporation, priority 2005, dated 2011)
pIC50: −log10 of the molar value.

Target: T1, Human CB1 receptor (Homo sapiens, UniProt P21554)
T1 construct: host or cells: CHO cells; the membrane fraction was prepared in house from the purchased recombinant line
Assay: Human CB1 receptor binding assay ([3H]-CP55940 displacement)
Settings: not given
Protocol: [Human CB1 Receptor Binding Assay]
(1) Preparation of human CB1 receptor (membrane fraction):
Human CB1-expressing cell line: hCB1/CHO#C3 (Euroscreen)
The receptor-expressing cells cultivated in the above medium were washed with phosphate buffer (×2) and thereto was added Buffer A (2 mL) under ice-cooling or 4° C. (the following procedures were also carried out at the same temperature). The cells were collected by using a cell-scraper, treated by a microtip-type ultrasonicator for 20 seconds (pulse-on: 2 sec, pulse-off: 1 sec) and centrifuged (500×g, 15 min). The supernatant was separated and centrifuged (43000×g, 60 min). The resultant pellet was suspended in Buffer A and homogenized with a potter-type homogenizer. To the homogenate was added an equal volume of 80% glycerol and stored at −80° C.
(2) Procedure of CB1 Receptor Binding Assay:
Radioligand: [^3H]-CP55940 (30 nM/7992 dpm/μL) prepared by diluting 8.3 µM solution of the radioligand with Buffer B
Each well of the assay plate (96-well, Costar Code#3371) was filled with Buffer B (140 μL), a solution of each test compound in dimethylsulfoxide (20 μL, […]), radioligand (20 μL) and membrane preparation (20 μL, 0.5 µg/20 μL) and the mixture was incubated at 30° C. for 90 minutes to proceed the binding reaction. The reaction mixture was harvested to each well of a plate presoaked with the above coating solution (Packard Unifilter GF/B, #6005177). The plate was washed with Buffer C (200 μL×10) and dried at 50° C. for 1 hour and Microscinti 40 (40 μL) was added to each well. The bound radiolabel was quantitated by scintilation counting (Top Count NXT, Packard). IC50 value of each test compound against the radioligand-binding to CB1 receptors was calculated on the basis of the quantitated radiolabel activity by using Graphpad Prism 3.02.

T1 sequence (P21554 whole entry): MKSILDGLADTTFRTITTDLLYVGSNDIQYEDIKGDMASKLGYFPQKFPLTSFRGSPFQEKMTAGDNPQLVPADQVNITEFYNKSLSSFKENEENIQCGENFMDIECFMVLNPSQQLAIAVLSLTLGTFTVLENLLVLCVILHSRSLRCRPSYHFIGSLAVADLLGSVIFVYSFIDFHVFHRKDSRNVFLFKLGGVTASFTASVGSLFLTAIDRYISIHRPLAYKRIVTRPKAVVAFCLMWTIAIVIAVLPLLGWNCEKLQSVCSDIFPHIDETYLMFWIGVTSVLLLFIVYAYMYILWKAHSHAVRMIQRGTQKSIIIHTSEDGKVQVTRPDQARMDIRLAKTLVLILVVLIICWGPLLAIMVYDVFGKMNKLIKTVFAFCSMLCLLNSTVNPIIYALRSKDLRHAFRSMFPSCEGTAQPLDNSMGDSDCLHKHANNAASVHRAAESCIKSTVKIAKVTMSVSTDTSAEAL

| Compound | pIC50 |
| --- | --- |
| COc1c(C(=O)NC2CCCC2)nn(-c2ccccc2Cl)c1-c1ccc(Cl)cc1 [Example 55] | 7.00 to 8.00 |
| COc1c(C(=O)NN2CCN(c3ccc(C(F)F)cn3)CC2)nn(-c2ccccc2Cl)c1-c1ccc(Cl)cc1 [Example 339, 1-(2-chlorophenyl)-5-(4-chlorophenyl)-3-[N-[4-(5-difluoromethyl-pyridin-2-yl)piperazin-1-yl]carbamoyl]-4-methoxy-1H-pyrazole] | 7.00 to 8.00 |

Same assay, conditions: radioligand [3H]-CP55940, membrane fraction of hCB1/CHO cells, 30° C. for 90 minutes; read-out: IC50

| Compound | pIC50 |
| --- | --- |
| 1-(2-chlorophenyl)-5-(4-chlorophenyl)-4-hydroxy-3-[N′-(4-tetrahydropyranyl)ureido]-1H-pyrazole [Example 18] | 7.00 to 8.00 |
| COc1c(C(=O)NCC(F)(F)F)nn(-c2ccccc2Cl)c1-c1ccc(Cl)cc1 [Example 4] | 7.00 to 8.00 |
| COCCOc1c(C(=O)NN2CCCC2)nn(-c2ccccc2Cl)c1-c1ccc(C(F)(F)F)cc1 [Example 148] | 7.00 to 8.00 |
| COc1c(C(=O)NN(C)C)nn(-c2ccccc2Cl)c1-c1ccc(C(F)(F)F)cc1 [Example 134] | 7.00 to 8.00 |
| CCNC1(C(N)=O)CCN(C(=O)c2nn(-c3ccccc3Cl)c(-c3ccc(Cl)cc3)c2O)CC1 [Example 279, 1-(2-chlorophenyl)-5-(4-chlorophenyl)-4-hydroxy-3-[[4-carbamoyl-4-(ethylamino)piperidino]carbonyl]-1H-pyrazole] | 7.00 to 8.00 |
| O=C(NN1CCC(F)(F)CC1)c1nn(-c2ccccc2Cl)c(-c2ccc(Cl)cc2)c1OC(F)F [Example 307] | > 8.00 |
| COc1c(C(=O)NN2CCN(C(=O)c3ccc(F)cc3F)CC2)nn(-c2ccccc2Cl)c1-c1ccc(Cl)cc1 [Example 216] | 7.00 to 8.00 |
| COc1c(C(=O)CN2CCS(=O)(=O)CC2)nn(-c2ccccc2Cl)c1-c1ccc(Cl)cc1 [Example 36, 1-(2-chlorophenyl)-5-(4-chlorophenyl)-4-methoxy-3-[1-(1,1-dioxothiomorpholino)acetyl]-1H-pyrazole] | 7.00 to 8.00 |
| NC(=O)COc1c(C(=O)NN2CCC(C(N)=O)(c3ccccc3)CC2)nn(-c2ccccc2Cl)c1-c1ccc(Cl)cc1 [Example 276, 1-(2-chlorophenyl)-5-(4-chloro-phenyl)-4-carbamoylmethoxy-3-[N-(4-carbamoyl-4-phenylpiperidin-1-yl)carbamoyl]-1H-pyrazole] | 7.00 to 8.00 |
| CCNC(=O)NCCOc1c(C(=O)NN2CCCC2)nn(-c2ccccc2Cl)c1-c1ccc(Cl)cc1 [Example 288, 1-(2-chlorophenyl)-5-(4-chlorophenyl)-4-[2-(N′-ethylureido)ethoxy]-3-[N-(1-pyrrolidinyl)carbamoyl]-1H-pyrazole] | 6.30 to 7.00 |
